{"source": "ChEMBL document CHEMBL1201862", "about": "“PubChem BioAssay data set” (2004)", "key": {"[1]": {"target": "T1, Heat shock 70 kDa protein 1A (Homo sapiens, UniProt P0DMV8)", "T1 sequence (P0DMV8 whole entry)": "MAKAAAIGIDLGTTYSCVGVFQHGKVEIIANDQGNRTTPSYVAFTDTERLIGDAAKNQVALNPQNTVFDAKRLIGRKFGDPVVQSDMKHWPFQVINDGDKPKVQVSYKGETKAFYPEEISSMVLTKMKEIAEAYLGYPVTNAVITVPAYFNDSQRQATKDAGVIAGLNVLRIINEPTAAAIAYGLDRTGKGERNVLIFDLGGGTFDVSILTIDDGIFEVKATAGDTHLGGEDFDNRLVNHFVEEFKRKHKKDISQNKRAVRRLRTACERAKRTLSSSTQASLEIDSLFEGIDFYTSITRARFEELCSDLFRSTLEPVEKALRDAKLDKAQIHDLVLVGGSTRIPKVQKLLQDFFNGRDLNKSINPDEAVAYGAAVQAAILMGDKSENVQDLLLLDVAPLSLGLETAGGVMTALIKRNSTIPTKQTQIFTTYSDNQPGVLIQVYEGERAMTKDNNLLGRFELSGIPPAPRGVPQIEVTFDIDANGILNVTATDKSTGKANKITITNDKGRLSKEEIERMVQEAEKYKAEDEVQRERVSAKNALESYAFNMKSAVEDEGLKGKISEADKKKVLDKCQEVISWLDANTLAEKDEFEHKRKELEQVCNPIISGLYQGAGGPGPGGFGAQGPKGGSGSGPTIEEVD", "experiment": "Hsp70 inhibitors, biochemical, TR-FRET (AID 786)"}, "[2]": {"target": "T1, Heat shock 70 kDa protein 1A", "experiment": "Hsp70 inhibitors, probe displacement, primary screen, biochemical, fluorescence polarization (AID 583)"}, "Vero [3]": {"tested_on": "Vero", "experiment": "cytotoxicity of synthesized analogs in Vero cells, SAR follow-up, cytotoxicity control for West Nile virus antiviral project, cell-based, set II (AID 2402)", "assay_type": "functional", "conditions": "Chlorocebus sabaeus"}, "[4]": {"experiment": "A Cell Based Assay for the Identification of Probe candidate Compounds with Anti- Venezuelan Equine Encephalitis virus. [Related pubchem assays: 2409, 2419, 1621, 2238, 2405, 2024, 2065, 2402, 2414, 1635, 1650, 2244 ]", "assay_type": "functional"}, "Vero [5]": {"tested_on": "Vero", "experiment": "cytotoxicity of synthesized analogs in Vero 76, SAR follow-up, cytotoxicity control for West Nile virus antiviral project, Vero 76 cells (AID 2414)", "assay_type": "functional", "conditions": "Chlorocebus sabaeus"}, "[6]": {"target": "T2, Luciferin 4-monooxygenase (Photinus pyralis, UniProt P08659)", "T2 sequence (P08659 whole entry)": "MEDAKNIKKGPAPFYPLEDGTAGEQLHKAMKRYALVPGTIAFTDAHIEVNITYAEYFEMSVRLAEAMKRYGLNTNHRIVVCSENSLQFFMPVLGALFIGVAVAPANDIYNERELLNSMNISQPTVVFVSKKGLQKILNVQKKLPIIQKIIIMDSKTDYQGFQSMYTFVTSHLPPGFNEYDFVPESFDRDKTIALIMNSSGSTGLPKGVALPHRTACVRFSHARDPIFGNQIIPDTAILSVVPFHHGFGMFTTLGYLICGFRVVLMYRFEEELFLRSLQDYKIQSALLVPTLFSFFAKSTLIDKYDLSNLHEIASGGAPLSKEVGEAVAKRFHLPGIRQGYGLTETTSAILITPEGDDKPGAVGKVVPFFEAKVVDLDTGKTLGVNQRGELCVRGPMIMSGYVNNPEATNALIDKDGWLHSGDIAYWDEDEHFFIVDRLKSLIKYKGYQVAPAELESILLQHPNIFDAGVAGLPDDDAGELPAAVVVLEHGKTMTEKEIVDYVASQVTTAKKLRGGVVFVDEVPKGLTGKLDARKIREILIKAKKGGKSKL", "experiment": "Counter Screen for Luciferase-based Assay Positives. [Related pubchem assays: 620, 618, 411 ]"}, "[7]": {"target": "T3, Trace amine-associated receptor 1 (Homo sapiens, UniProt Q96RJ0)", "T3 sequence (Q96RJ0 whole entry)": "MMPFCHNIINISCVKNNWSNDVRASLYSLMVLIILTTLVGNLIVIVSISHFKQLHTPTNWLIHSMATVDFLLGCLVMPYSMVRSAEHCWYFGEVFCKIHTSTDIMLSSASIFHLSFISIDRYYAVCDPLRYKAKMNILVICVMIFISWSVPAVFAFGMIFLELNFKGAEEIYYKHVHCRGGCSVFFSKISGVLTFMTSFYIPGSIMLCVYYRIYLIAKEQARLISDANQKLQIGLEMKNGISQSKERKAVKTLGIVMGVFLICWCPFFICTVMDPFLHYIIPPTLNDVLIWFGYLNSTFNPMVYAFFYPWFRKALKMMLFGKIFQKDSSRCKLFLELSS", "experiment": "Fluorescence-based cell-based high throughput dose response assay to identify agonists of the human trace amine associated receptor 1 (TAAR1).", "assay_type": "functional"}, "HT-1080": {"tested_on": "HT-1080", "experiment": "cytotoxicity in HT1080 fibrosarcoma cells, cell-based, fluorescence readout (AID 620)", "assay_type": "functional", "conditions": "Homo sapiens"}, "cells [8]": {"experiment": "cells", "assay_type": "functional, cell-based"}, "[9]": {"experiment": "Luminescence Cell-Based Dose Confirmation HTS to Identify Inhibitors of Platelet Dense Granule Release. [Related pubchem assays: 1663 (Primary HTS), 1678 (Summary of Project)]", "assay_type": "functional"}, "[10]": {"target": "T4, Oxysterols receptor LXR-beta (Homo sapiens, UniProt P55055)", "T4 sequence (P55055 whole entry)": "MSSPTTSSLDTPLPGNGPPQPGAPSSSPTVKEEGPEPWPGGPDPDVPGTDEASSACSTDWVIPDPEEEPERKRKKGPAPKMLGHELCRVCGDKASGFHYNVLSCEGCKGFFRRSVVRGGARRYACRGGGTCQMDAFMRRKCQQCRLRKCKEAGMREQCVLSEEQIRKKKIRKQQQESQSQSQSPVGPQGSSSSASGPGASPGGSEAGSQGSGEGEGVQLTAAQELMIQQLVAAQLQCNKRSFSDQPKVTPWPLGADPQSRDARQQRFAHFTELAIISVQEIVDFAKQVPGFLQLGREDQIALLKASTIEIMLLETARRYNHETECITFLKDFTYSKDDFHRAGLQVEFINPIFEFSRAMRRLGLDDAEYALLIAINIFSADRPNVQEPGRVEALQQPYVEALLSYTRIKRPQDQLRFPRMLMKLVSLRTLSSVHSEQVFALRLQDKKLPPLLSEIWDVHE", "assay_type": "functional, cell-based"}, "[11]": {"target": "T2, Luciferin 4-monooxygenase", "experiment": "firefly luciferase enzyme inhibitors, dose response, biochemical, luminescence (AID 1891)"}, "Protein Rev": {"target": "T5, Protein Rev (Human immunodeficiency virus type 1 group M subtype B (isolate WMJ22)(HIV-1), UniProt P05866)", "T5 sequence (P05866 whole entry)": "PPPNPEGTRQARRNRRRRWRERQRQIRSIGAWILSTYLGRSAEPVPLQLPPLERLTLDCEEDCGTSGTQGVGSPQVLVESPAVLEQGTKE", "experiment": "HIV-1 Rev-RRE RNA binding disruptors, dose response, biochemical, protein-RNA interaction (AID 842)", "parameters": "species or system Human immunodeficiency virus 1"}, "[12]": {"target": "T3, Trace amine-associated receptor 1", "experiment": "Counterscreen for agonists of the human trace amine associated receptor 1 (hTAAR1): Fluorescence-based cell-based high throughput dose response assay to identify hTAAR1 agonist that also desensitize TAAR1 receptor response.", "assay_type": "functional"}, "cells [13]": {"experiment": "cells", "assay_type": "functional, cell-based", "remark": "listed apart in the source"}}, "note": "Calls of active or inactive are those of the source."}
{"smiles": "Cc1ccnc2c(N3C(=O)C4C5C=CC(C5)C4(C)C3=O)cccc12", "note": "(stereo not given)", "values": [{"measurement": "IC50", "setting": "[1]", "value": "> 100 µM (not active)"}, {"measurement": "IC50", "setting": "[2]", "value": "> 100 µM (not active)"}]}
{"smiles": "C=CCN(C(=O)c1ccccc1Cl)c1nc(-c2ccc(OC)cc2)cs1", "values": [{"measurement": "CC50", "setting": "Vero [3]", "value": "11.1 µM (active)"}, {"measurement": "IC50", "setting": "[4]", "value": "50.1 µM (active)"}, {"measurement": "CC50", "setting": "Vero [5]", "value": "24 µM (active)"}]}
{"smiles": "Nc1nc(Nc2ccc(Cl)cc2)nc2ccccc12", "values": [{"measurement": "EC50", "setting": "[6]", "value": "1.8 µM (active)"}, {"measurement": "EC50", "setting": "[7]", "value": "19.2 µM (inactive)"}, {"measurement": "EC50", "setting": "HT-1080", "value": "> 50 µM (not active)"}, {"measurement": "IC50", "setting": "cells [8]", "value": "> 29.9 µM (inactive)"}, {"measurement": "EC50", "setting": "[9]", "value": "2.37 µM (active)"}, {"measurement": "EC50", "setting": "[10]", "value": "> 67.5 µM (inactive)"}, {"measurement": "EC50", "setting": "[11]", "value": "0.347 µM (active)"}, {"measurement": "IC50", "setting": "Protein Rev", "value": "> 79.4 µM (not active)"}, {"measurement": "IC50", "setting": "[12]", "value": "9.98 µM (active)"}, {"measurement": "EC50", "setting": "cells [13]", "value": "> 29.9 µM (inactive)"}]}
